Bounds are passed on as bounds.

The subject of one data set is MGC-803. Briefly: Antiproliferative activity against human MGC-803 cells assessed as inhibition of cell proliferation measured after 72 hrs by MTT assay. The note with it: MGC-803, 72 h. The class given is functional, cell-based.
Another data set relates to A549. In words: Antiproliferative activity against human A549 cells assessed as inhibition of cell proliferation measured after 72 hrs by MTT assay. Type of data set: functional, cell-based. The note with it: A549, 72 h. Background: Tetrazolium dyes change colour on reduction, which living cells bring about.
In the next data set the test system is MCF7. In words: Antiproliferative activity against human MCF7 cells assessed as inhibition of cell proliferation measured after 72 hrs by MTT assay. The class given is functional, cell-based. The conditions noted are these: MCF7, 72 h.
In another data set the test system is HepG2. In words: Antiproliferative activity against human HepG2 cells assessed as inhibition of cell proliferation measured after 72 hrs by MTT assay. Type of data set: functional, cell-based. The conditions noted are these: HepG2, 72 h.
A short description of data set [1]: Cytotoxicity against human GES1 cells assessed as inhibition of cell proliferation measured after 72 hrs by MTT assay. Type of data set: toxicity, cell-based.
For the next data set, the system named is HGC-27. In words: Antiproliferative activity against human HGC-27 cells assessed as inhibition of cell proliferation measured after 72 hrs by MTT assay. The conditions noted are these: HGC-27, 72 h. Type of data set: functional, cell-based.

`O=C(Nc1cc(-c2cccc(Br)c2)on1)C1CCN(C/C=C/c2ccccc2)CC1`: the IC50 (commonly the point on the concentration scale where inhibition reaches its midpoint) was determined as 4.61 µM with MGC-803, 6.53 µM with A549, 4.87 µM in the data set with MCF7 and 4.42 µM in the data set on HepG2.

For `O=C(Nc1nccs1)C1CCN(C/C=C/c2ccccc2)CC1`, the half-maximal inhibitory concentration (IC50) came to 16.4 µM in the data set on MGC-803, 34.9 µM in the data set on A549, 28.6 µM in the data set on MCF7 and 22.4 µM in the data set with HepG2.

Consider `CCc1ccc(NC(=O)C2CCN(C/C=C/c3ccccc3)CC2)cc1`, for which the IC50 in the data set with MGC-803 worked out at 11.6 µM; in the data set on A549, 19.6 µM; in the data set with MCF7, 20 µM; with HepG2, 23.3 µM.

Turning to `COc1ccccc1NC(=O)C1CCN(C/C=C/c2ccccc2)CC1`, the IC50 was 71.2 µM in the data set on MGC-803, over 100 µM with A549, over 100 µM in the data set with MCF7 and 91.2 µM with HepG2.

Take `N#Cc1ccc(NC(=O)C2CCN(C/C=C/c3ccccc3)CC2)cc1`: the 50% inhibitory concentration (IC50) with MGC-803 was 28.2 µM; in the data set with A549, 40.2 µM; in the data set on MCF7 it was 44.5 µM; with HepG2, 38.3 µM.

With `O=C(Nc1cccc2cccnc12)C1CCN(C/C=C/c2ccccc2)CC1`, the concentration for half-maximal inhibition (IC50) in the data set on MGC-803 is 38.1 µM; with A549, 51.6 µM; with MCF7 it was 34.8 µM; in the data set on HepG2 it was 29.5 µM.

Regarding `O=C(Nc1nc2ccc(Br)cc2s1)C1CCN(C/C=C/c2ccccc2)CC1`, the IC50 in the data set with MGC-803 is 4.38 µM; in the data set on A549, 17.7 µM; in the data set on MCF7, 14.6 µM; in the data set on HepG2, 32.1 µM.

In the case of `CC(C)c1ccc(NC(=O)C2CCN(C/C=C/c3ccccc3)CC2)cc1`, the IC50 in the data set with MGC-803 was found to be 5.2 µM; in the data set with A549, 9.43 µM; in the data set with MCF7 it was 9.1 µM; with HepG2, 12.2 µM.

`CCCCc1ccc(NC(=O)C2CCN(C/C=C/c3ccccc3)CC2)cc1`: the 50% inhibitory concentration (IC50) with MGC-803 turned out to be 2.57 µM; in the data set on A549, 5.91 µM; in the data set on MCF7, 5.87 µM; with HepG2, 4.32 µM.

For `COc1cccc(NC(=O)C2CCN(C/C=C/c3ccccc3)CC2)c1`, the IC50 with MGC-803 was determined as 37.2 µM; in the data set on A549 it was 50.5 µM; in the data set with MCF7, 42.6 µM; in the data set on HepG2 it was 78.6 µM.

In the case of `O=C(Nc1ccc(F)c(Br)c1)C1CCN(C/C=C/c2ccccc2)CC1`, the IC50 was 9.27 µM in the data set on MGC-803, 11.7 µM in the data set with A549, 13.5 µM with MCF7 and 8.19 µM in the data set with HepG2.

In the case of `O=C(Nc1ccccc1)C1CCN(C/C=C/c2ccccc2)CC1`, the IC50 is 57.9 µM with MGC-803, 69.7 µM with A549, 60.2 µM in the data set with MCF7 and 90.9 µM with HepG2.

On to `O=C(Nc1cccc(F)c1)C1CCN(C/C=C/c2ccccc2)CC1`, for which the IC50 in the data set with MGC-803 was 23.3 µM; in the data set on A549, 43.3 µM; in the data set on MCF7, 33 µM; in the data set on HepG2 it was 51.1 µM.

Turning to `COc1ccc(NC(=O)C2CCN(C/C=C/c3ccccc3)CC2)cc1`, the IC50 in the data set with MGC-803 was 58.2 µM; in the data set with A549, 83.8 µM; with MCF7, over 100 µM; in the data set on HepG2, 88.8 µM.

For the molecule `O=C(Nc1cccc(Cl)c1)C1CCN(C/C=C/c2ccccc2)CC1`, the IC50 in the data set with MGC-803 was 11.3 µM; in the data set with A549, 19.1 µM; with MCF7 it was 16.1 µM; in the data set with HepG2 it was 20 µM.

As to `O=c1[nH]cc(F)c(=O)[nH]1` [FLUOROURACIL], the IC50 in the data set on MGC-803 came to 12.1 µM; in the data set with A549, 15.1 µM; in the data set with MCF7, 9.49 µM; in the data set on HepG2, 6.69 µM.

For `CCCc1ccc(NC(=O)C2CCN(C/C=C/c3ccccc3)CC2)cc1`, the IC50 in the data set on MGC-803 stood at 5.21 µM; in the data set on A549, 9.47 µM; with MCF7 it was 9.03 µM; in the data set with HepG2 it was 9.41 µM.

Regarding `O=C(Nc1cccc(C(F)(F)F)c1)C1CCN(C/C=C/c2ccccc2)CC1`, the IC50 was determined as 9.59 µM with MGC-803, 15.6 µM with A549, 16.1 µM with MCF7 and 11.4 µM in the data set on HepG2.

Consider `O=C(Nc1ccccn1)C1CCN(C/C=C/c2ccccc2)CC1`, for which the IC50 in the data set on MGC-803 was 45.2 µM; with A549, 89.3 µM; in the data set with MCF7 it was 67.2 µM; in the data set with HepG2 it was 51.1 µM.

In the case of `O=C(Nc1cccc(Br)c1)C1CCN(C/C=C/c2ccccc2)CC1`, the concentration for half-maximal inhibition (IC50) is 9.11 µM in the data set with MGC-803, 16.4 µM in the data set on A549, 11.5 µM in the data set with MCF7 and 19.2 µM with HepG2.

In the case of `Cc1ccc(NC(=O)C2CCN(C/C=C/c3ccccc3)CC2)cc1`, the IC50 in the data set with MGC-803 came to 24.1 µM; in the data set on A549, 29.6 µM; with MCF7, 30 µM; in the data set on HepG2 it was 33.9 µM.

With `O=C(NCc1ccccc1)C1CCN(C/C=C/c2ccccc2)CC1`, the IC50 with MGC-803, in the data set on A549, with MCF7 and in the data set on HepG2 was over 100 µM throughout.

Turning to `CN1CCN(c2ccc(NC(=O)C3CCN(C/C=C/c4ccccc4)CC3)cc2)CC1`, the IC50 in the data set on MGC-803 came to 14 µM; in the data set with A549, 19.9 µM; with MCF7, 44 µM; with HepG2 it was 35.2 µM.

With `NS(=O)(=O)OC[C@@H]1CC(n2ccc3c(N[C@H]4CCc5ccccc54)ncnc32)C[C@@H]1O` (single isomer, unassigned) [PEVONEDISTAT], the IC50 in the data set on MGC-803 was 5.16 µM; in the data set with A549, 47.8 µM; in the data set with MCF7, over 100 µM; in the data set with HepG2 it was 8.15 µM; in the data set with HGC-27, 1.25 µM. Also, the IC50 at 72 h in data set [1] amounted to 13.5 µM.

The values are drawn from ChEMBL document CHEMBL5038615, “Discovery of a cinnamyl piperidine derivative as new neddylation inhibitor for gastric cancer treatment” (Eur J Med Chem, 2021).
